Results from patent US10385103B2, “Cell-permeable (ICP)-SOCS3 recombinant protein and uses thereof” (CELLIVERY THERAPEUTICS, INC., priority 2014, dated 2019).

System: RAW 264.7 cells
Assay: Quantitative cell-permeability of FITC-labeled aMTD- or rPeptide-fused CRA recombinant proteins (flow cytometry)
Type: cell-based
Summary of the method: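 Uptake of fluorescently labeled, peptide-fused cargo proteins was quantified by flow cytometry (Guava, Millipore) and analyzed in FlowJo software. RAW 264.7 cells received 10 μM FITC-labeled protein for 1 hour at 37° C., were rinsed three times with cold PBS, and were trypsinized with 0.25% tripsin/EDTA for 20 minutes at 37° C. to remove bound protein before measurement. Permeability was expressed relative to reference proteins.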

[1] = cell-permeability of aMTD-fused CRA recombinant protein relative to negative control (A: rP38)
[2] = cell-permeability of aMTD-fused CRA recombinant protein relative to reference CPP (B: MTM12)
[3] = cell-permeability of aMTD-fused CRA recombinant protein relative to reference CPP (C: MTD85)
[4] = cell-permeability relative to negative control rP38 (A type), aMTD-fused CRA recombinant protein, 10 μM FITC-labeled, 1 hour, 37° C., RAW 264.7 cells
[5] = cell-permeability relative to reference CPP MTD85 (C type), aMTD-fused CRA recombinant protein, 10 μM FITC-labeled, 1 hour, 37° C., RAW 264.7 cells
[6] = cell-permeability relative to reference CPP MTM12 (B type), aMTD-fused CRA recombinant protein, 10 μM FITC-labeled, 1 hour, 37° C., RAW 264.7 cells

“706 (IVAVALLPAVAP; Amino acid Sequence of aMTD706) [compound 706]” was tested, and the “Relative Ratio (Fold) A” value [1] was 12.0 Fold, the “Relative Ratio (Fold) B” value [2] was 7.0 Fold and the “Relative Ratio (Fold) C” value [3] was 4.1 Fold.

With “707 (IVALAVLPAVAP; Amino acid Sequence of aMTD707) [compound 707]” the “Relative Ratio (Fold) A” value [4] was 7.3 Fold, the “Relative Ratio (Fold) C” value [5] was 2.5 Fold and the “Relative Ratio (Fold) B” value [6] was 4.9 Fold.

“724 (VAVLAVLPALAP; Amino acid Sequence of aMTD724) [compound 724]” was tested, and the “Relative Ratio (Fold) A” value [1] was 47.5 Fold, the “Relative Ratio (Fold) B” value [2] was 31.8 Fold and the “Relative Ratio (Fold) C” value [3] was 16.1 Fold.

With “725 (IAVLAVAPAVLP; Amino acid Sequence of aMTD725) [compound 725]” the “Relative Ratio (Fold) A” value [1] was 11.2 Fold, the “Relative Ratio (Fold) B” value [2] was 7.5 Fold and the “Relative Ratio (Fold) C” value [3] was 3.8 Fold.

“726 (LAVAIIAPAVAP; Amino acid Sequence of aMTD726) [compound 726]” was tested, and the “Relative Ratio (Fold) A” value [1] was 16.5 Fold, the “Relative Ratio (Fold) B” value [2] was 11.0 Fold and the “Relative Ratio (Fold) C” value [3] was 5.6 Fold.

In the case of “727 (VALAIALPAVLP; Amino acid Sequence of aMTD727) [compound 727]”, the “Relative Ratio (Fold) A” value [1] is reported as 54.7 Fold, the “Relative Ratio (Fold) B” value [2] is reported as 36.7 Fold and the “Relative Ratio (Fold) C” value [3] is reported as 18.5 Fold.

With “743 (AIAIALVPVALP; Amino acid Sequence of aMTD743) [compound 743]” the “Relative Ratio (Fold) A” value [1] was 7.4 Fold, the “Relative Ratio (Fold) B” value [2] was 4.9 Fold and the “Relative Ratio (Fold) C” value [3] was 2.5 Fold.

“744 (AAVVIVAPVALP; Amino acid Sequence of aMTD744) [compound 744]” was tested, and the “Relative Ratio (Fold) A” value [1] was 11.0 Fold, the “Relative Ratio (Fold) B” value [2] was 7.3 Fold and the “Relative Ratio (Fold) C” value [3] was 3.7 Fold.

With “746 (VAIIVVAPALAP; Amino acid Sequence of aMTD746) [compound 746]” the “Relative Ratio (Fold) A” value [1] was 7.6 Fold, the “Relative Ratio (Fold) B” value [2] was 4.4 Fold and the “Relative Ratio (Fold) C” value [3] was 2.6 Fold.

In the case of “763 (VAVLIAVPALAP; Amino acid Sequence of aMTD763) [compound 763]”, the “Relative Ratio (Fold) A” value [1] is reported as 12.3 Fold, the “Relative Ratio (Fold) B” value [2] is reported as 7.2 Fold and the “Relative Ratio (Fold) C” value [3] is reported as 4.2 Fold.

With “764 (AVALAVLPAVVP; Amino acid Sequence of aMTD764) [compound 764]” the “Relative Ratio (Fold) A” value [4] was 5.0 Fold, the “Relative Ratio (Fold) C” value [5] was 1.7 Fold and the “Relative Ratio (Fold) B” value [6] was 3.4 Fold.

With “765 (AVALAVVPAVLP; Amino acid Sequence of aMTD765) [compound 765]” the “Relative Ratio (Fold) A” value [4] was 3.8 Fold, the “Relative Ratio (Fold) C” value [5] was 1.3 Fold and the “Relative Ratio (Fold) B” value [6] was 2.2 Fold.

For “766 (IVVIAVAPAVAP; Amino acid Sequence of aMTD766) [compound 766]”, the “Relative Ratio (Fold) A” value [1] was 12.9 Fold, the “Relative Ratio (Fold) B” value [2] was 8.6 Fold and the “Relative Ratio (Fold) C” value [3] was 4.4 Fold.

“767 (IVVAAVVPALAP; Amino acid Sequence of aMTD767) [compound 767]” was tested, and the “Relative Ratio (Fold) A” value [1] was 8.5 Fold, the “Relative Ratio (Fold) B” value [2] was 5.0 Fold and the “Relative Ratio (Fold) C” value [3] was 2.9 Fold.

With “783 (IVALVPAVAIAP; Amino acid Sequence of aMTD783) [compound 783]” the “Relative Ratio (Fold) A” value [4] was 5.7 Fold, the “Relative Ratio (Fold) C” value [5] was 1.9 Fold and the “Relative Ratio (Fold) B” value [6] was 3.8 Fold.

With “784 (VAALPAVALVVP; Amino acid Sequence of aMTD784) [compound 784]” the “Relative Ratio (Fold) A” value [4] was 7.1 Fold, the “Relative Ratio (Fold) C” value [5] was 2.4 Fold and the “Relative Ratio (Fold) B” value [6] was 4.7 Fold.

In the case of “786 (LVAIAPLAVLAP; Amino acid Sequence of aMTD786) [compound 786]”, the “Relative Ratio (Fold) A” value [1] is reported as 21.2 Fold, the “Relative Ratio (Fold) B” value [2] is reported as 14.2 Fold and the “Relative Ratio (Fold) C” value [3] is reported as 7.2 Fold.

With “788 (AIAVAIAPVALP; Amino acid Sequence of aMTD788) [compound 788]” the “Relative Ratio (Fold) A” value [1] was 9.8 Fold, the “Relative Ratio (Fold) B” value [2] was 6.6 Fold and the “Relative Ratio (Fold) C” value [3] was 3.3 Fold.

With “803 (AIALAVPVLALP; Amino acid Sequence of aMTD803) [compound 803]” the “Relative Ratio (Fold) A” value [1] was 74.7 Fold, the “Relative Ratio (Fold) B” value [2] was 50.0 Fold and the “Relative Ratio (Fold) C” value [3] was 25.3 Fold.

With “805 (LVLIAAAPIALP; Amino acid Sequence of aMTD805) [compound 805]” the “Relative Ratio (Fold) A” value [1] was 22.3 Fold, the “Relative Ratio (Fold) B” value [2] was 14.9 Fold and the “Relative Ratio (Fold) C” value [3] was 7.6 Fold.

“806 (LVALAVPAAVLP; Amino acid Sequence of aMTD806) [compound 806]” was tested, and the “Relative Ratio (Fold) A” value [1] was 36.7 Fold, the “Relative Ratio (Fold) B” value [2] was 24.6 Fold and the “Relative Ratio (Fold) C” value [3] was 12.4 Fold.

For “807 (AVALAVPALVLP; Amino acid Sequence of aMTD807) [compound 807]”, the “Relative Ratio (Fold) A” value [4] was 5.0 Fold, the “Relative Ratio (Fold) C” value [5] was 1.7 Fold and the “Relative Ratio (Fold) B” value [6] was 3.3 Fold.

“809 (LIVLAAPALAAP; Amino acid Sequence of aMTD809) [compound 809]” was tested, and the “Relative Ratio (Fold) A” value [4] was 7.0 Fold, the “Relative Ratio (Fold) C” value [5] was 2.4 Fold and the “Relative Ratio (Fold) B” value [6] was 4.7 Fold.

“810 (VIVLAAPALAAP; Amino acid Sequence of aMTD810) [compound 810]” was tested, and the “Relative Ratio (Fold) A” value [1] was 120.0 Fold, the “Relative Ratio (Fold) B” value [2] was 80.3 Fold and the “Relative Ratio (Fold) C” value [3] was 40.6 Fold.

For “811 (AVVLAVPALAVP; Amino acid Sequence of aMTD811) [compound 811]”, the “Relative Ratio (Fold) A” value [1] was 46.5 Fold, the “Relative Ratio (Fold) B” value [2] was 31.1 Fold and the “Relative Ratio (Fold) C” value [3] was 15.7 Fold.

In the case of “824 (LIIVAAAPAVAP; Amino acid Sequence of aMTD824) [compound 824]”, the “Relative Ratio (Fold) A” value [1] is reported as 32.8 Fold, the “Relative Ratio (Fold) B” value [2] is reported as 21.9 Fold and the “Relative Ratio (Fold) C” value [3] is reported as 11.1 Fold.

In the case of “825 (IVAVIVAPAVAP; Amino acid Sequence of aMTD825) [compound 825]”, the “Relative Ratio (Fold) A” value [1] is reported as 69.7 Fold, the “Relative Ratio (Fold) B” value [2] is reported as 46.6 Fold and the “Relative Ratio (Fold) C” value [3] is reported as 23.5 Fold.

For “826 (LVALAAPIIAVP; Amino acid Sequence of aMTD826) [compound 826]”, the “Relative Ratio (Fold) A” value [1] was 49.2 Fold, the “Relative Ratio (Fold) B” value [2] was 32.9 Fold and the “Relative Ratio (Fold) C” value [3] was 18.6 Fold.

With “827 (IAAVLAAPALVP; Amino acid Sequence of aMTD827) [compound 827]” the “Relative Ratio (Fold) A” value [1] was 43.0 Fold, the “Relative Ratio (Fold) B” value [2] was 28.8 Fold and the “Relative Ratio (Fold) C” value [3] was 14.6 Fold.

“828 (IALLAAPIIAVP; Amino acid Sequence of aMTD828) [compound 828]” was tested, and the “Relative Ratio (Fold) A” value [1] was 36.8 Fold, the “Relative Ratio (Fold) B” value [2] was 24.6 Fold and the “Relative Ratio (Fold) C” value [3] was 12.4 Fold.

With “829 (AALALVAPVIVP; Amino acid Sequence of aMTD829) [compound 829]” the “Relative Ratio (Fold) A” value [1] was 44.8 Fold, the “Relative Ratio (Fold) B” value [2] was 30.0 Fold and the “Relative Ratio (Fold) C” value [3] was 15.2 Fold.

With “830 (IALVAAPVALVP; Amino acid Sequence of aMTD830) [compound 830]” the “Relative Ratio (Fold) A” value [4] was 5.3 Fold, the “Relative Ratio (Fold) C” value [5] was 1.8 Fold and the “Relative Ratio (Fold) B” value [6] was 3.5 Fold.

In the case of “831 (IIVAVAPAAIVP; Amino acid Sequence of aMTD831) [compound 831]”, the “Relative Ratio (Fold) A” value [1] is reported as 46.3 Fold, the “Relative Ratio (Fold) B” value [2] is reported as 31.0 Fold and the “Relative Ratio (Fold) C” value [3] is reported as 15.7 Fold.

“832 (AVAAIVPVIVAP; Amino acid Sequence of aMTD832) [compound 832]” was tested, and the “Relative Ratio (Fold) A” value [4] was 4.1 Fold, the “Relative Ratio (Fold) C” value [5] was 1.4 Fold and the “Relative Ratio (Fold) B” value [6] was 2.7 Fold.

With “843 (AVLVLVAPAAAP; Amino acid Sequence of aMTD843) [compound 843]” the “Relative Ratio (Fold) A” value [1] was 26.4 Fold, the “Relative Ratio (Fold) B” value [2] was 17.7 Fold and the “Relative Ratio (Fold) C” value [3] was 8.9 Fold.

With “844 (VVALLAPLIAAP; Amino acid Sequence of aMTD844) [compound 844]” the “Relative Ratio (Fold) A” value [1] was 11.2 Fold, the “Relative Ratio (Fold) B” value [2] was 7.5 Fold and the “Relative Ratio (Fold) C” value [3] was 3.8 Fold.

For “845 (AAVVIAPLLAVP; Amino acid Sequence of aMTD845) [compound 845]”, the “Relative Ratio (Fold) A” value [1] was 35.8 Fold, the “Relative Ratio (Fold) B” value [2] was 24.0 Fold and the “Relative Ratio (Fold) C” value [3] was 12.1 Fold.

In the case of “846 (IAVAVAAPLLVP; Amino acid Sequence of aMTD846) [compound 846]”, the “Relative Ratio (Fold) A” value [1] is reported as 11.7 Fold, the “Relative Ratio (Fold) B” value [2] is reported as 6.8 Fold and the “Relative Ratio (Fold) C” value [3] is reported as 4.0 Fold.

In the case of “847 (LVAIVVLPAVAP; Amino acid Sequence of aMTD847) [compound 847]”, the “Relative Ratio (Fold) A” value [1] is reported as 50.2 Fold, the “Relative Ratio (Fold) B” value [2] is reported as 33.4 Fold and the “Relative Ratio (Fold) C” value [3] is reported as 16.9 Fold.

“848 (AVAIVVLPAVAP; Amino acid Sequence of aMTD848) [compound 848]” was tested, and the “Relative Ratio (Fold) A” value [1] was 10.0 Fold, the “Relative Ratio (Fold) B” value [2] was 6.7 Fold and the “Relative Ratio (Fold) C” value [3] was 3.4 Fold.

With “849 (AVILLAPLIAAP; Amino acid Sequence of aMTD849) [compound 849]” the “Relative Ratio (Fold) A” value [1] was 8.3 Fold, the “Relative Ratio (Fold) B” value [2] was 4.8 Fold and the “Relative Ratio (Fold) C” value [3] was 2.9 Fold.

For “850 (LVIALAAPVALP; Amino acid Sequence of aMTD850) [compound 850]”, the “Relative Ratio (Fold) A” value [1] was 8.8 Fold, the “Relative Ratio (Fold) B” value [2] was 5.9 Fold and the “Relative Ratio (Fold) C” value [3] was 3.0 Fold.

With “851 (VLAVVLPAVALP; Amino acid Sequence of aMTD851) [compound 851]” the “Relative Ratio (Fold) A” value [1] was 96.6 Fold, the “Relative Ratio (Fold) B” value [2] was 64.7 Fold and the “Relative Ratio (Fold) C” value [3] was 32.7 Fold.
